Assay results: US20200278355A1, “CONJUGATED PROTEINS AND USES THEREOF” (THE SCRIPPS RESEARCH INSTITUTE, priority 2017, published 2020)
Entries after “also recorded” stand apart in the source; their conditions may differ.

Target: T1, NR0B1-SNW1 interaction (Homo sapiens, UniProt P51843)
T1 construct: endogenous in cells; host or cells: NR0B1: H2122 cell lysate
T1 sequence (P51843 1-470): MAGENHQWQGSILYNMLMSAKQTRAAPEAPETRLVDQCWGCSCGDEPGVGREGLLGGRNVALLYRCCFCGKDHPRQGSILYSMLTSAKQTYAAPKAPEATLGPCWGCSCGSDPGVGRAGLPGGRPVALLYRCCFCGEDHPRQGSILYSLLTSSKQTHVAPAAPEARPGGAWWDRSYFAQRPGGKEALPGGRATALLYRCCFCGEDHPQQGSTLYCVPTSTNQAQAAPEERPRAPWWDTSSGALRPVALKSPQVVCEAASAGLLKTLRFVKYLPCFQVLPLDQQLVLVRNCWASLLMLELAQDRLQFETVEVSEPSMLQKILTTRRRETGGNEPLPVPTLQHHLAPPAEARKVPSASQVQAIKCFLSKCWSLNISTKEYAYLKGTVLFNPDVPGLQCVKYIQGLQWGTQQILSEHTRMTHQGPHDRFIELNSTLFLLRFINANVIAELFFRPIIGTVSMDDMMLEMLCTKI
Experiment: In vitro binding assay: NR0B1 in H2122 lysate binding to immobilized FLAG-SNW1
Conditions: for IC50: in vitro, read-out: IC50, inhibition of the NR0B1-SNW1 interaction
Description: H2122 clarified cell lysate (100 μL, 1 mg ml^−1) in IP-buffer were incubated with the indicated compounds or vehicle (DMSO) for 3 hours at 4° C. with rotation. Following treatment, 3 volumes of IP-buffer was added along with immobilized FLAG-SNW1 beads (30 μL, 50:50 slurry), which was incubated for an additional hour at 4° C. Beads were washed three times with IP-buffer supplemented with 500 mM NaCl. Immunoprecipitated proteins were resolved by SDS-PAGE and analyzed by immunoblotting. NR0B1 and HA-NR0B1 levels were determined by using the NR0B1 antibody (Cell Signaling). IC50 curves were determined using Prism 6 (Graphpad) software, with maximum and minimum values set at 100% NR0B1 bound 0% NR0B1 bound respectively.
Statistical analysis was preformed using GraphPad Prism version 6 or 7 for Mac, GraphPad Software, La Jolla Calif. USA, or the R statistical programming language. Inhibition curves of the NR0B1-SNW1 interactions by NR0B1-ligand are fit as using log(inhibitor) vs % normalized remaining of NR0B1-SNW1 interaction and data points are plotted as the mean±SD (n=2-5 per group). NR0B1 half-life was calculated from a one-phase exponential decay curve plotted as mean±SD (4-10 per group). Statistical significance was defined as p<0.05 and determined by 2-tailed Student's t-test (FIG. 1I, FIG. 3B), two-way Anova with Bonferroni post-test analysis (FIG. 1J) or correlation analysis using Pearson product-moment correlation coefficient (FIG. 4B, FIG. 10G).
Next, a chemical probe targeting C274 of NR0B1 was developed. Using an in vitro binding assay (FIG. 5B), an ˜80-member library of cysteine-reactive electrophilic compounds was screened at 50 μM for blockade of interactions between endogenous NR0B1 and recombinant FLAG-SNW1 in cell lysates (FIG. 5C). Among the hits (>50% blockade) were a series of N-disubstituted chloroacetamides (CAs), including BPK-26 (FIGS. 5D, 5E), that were selected for further investigation. […] Both BPK-26 and BPK-29 inhibited the NR0B1-SNW1 interaction with IC50 values between 10-20 μM in vitro (FIG. 11C).

Compound | relative potency for inhibition of FLAG-SNW1 binding to NR0B1 (structure-activity relationship) (compounds at 50 μM) | IC50 | inhibition of the NR0B1-SNW1 interaction (tested concentration range of 1-50 μM) | blockade of interactions between endogenous NR0B1 and recombinant FLAG-SNW1 (screened at 50 μM in cell lysates)
O=C(c1ccc(N2CCOCC2)cc1)N1CCCC(N(Cc2ccccc2)C(=O)CCl)CC1 (centres unmarked) [BPK-29, N-benzyl-2-chloro-N-(1-(4-morpholinobenzoyl)azepan-4-yl)acetamide] | the most potent analogue; also recorded: recovered potency | 10 to 20 µM |  | 
O=C(c1ccc(N2CCOCC2)cc1)N1CCC(CN(C(=O)CCl)c2cncnc2)CC1 [BPK-9, 2-chloro-N-((1-(4-morpholinobenzoyl)piperidin-4-yl)methyl)-N-(pyrimidin-5-yl)acetamide] |  |  | did not inhibit | 
O=C(CCl)N(Cc1cccc(Cl)c1F)c1ccc(Cl)nc1 [BPK-26, 2-chloro-N-(3-chloro-2-fluorobenzyl)-N-(6-chloropyridin-3-yl)acetamide] |  | 10 to 20 µM |  | > 50%
